Read-outs that look alike come from different tables or passages of the source.

We go through 15 compounds from paper PMC9032776, “Towards Selective Binding to the GLUT5 Transporter: Synthesis, Molecular Dynamics and In Vitro Evaluation of Novel C-3-Modified 2,5-Anhydro-D-mannitol Analogs” (Pharmaceutics, 2022).

The target in data set [1] is T1, GLUT5 (Mus musculus, UniProt Q9WV38).
T1 construct: GLUT5-expressing murine mammary carcinoma cancer cells (EMT6); endogenous in cells; host or cells: EMT6 murine mammary carcinoma cells
T1 sequence (Q9WV38 1-501): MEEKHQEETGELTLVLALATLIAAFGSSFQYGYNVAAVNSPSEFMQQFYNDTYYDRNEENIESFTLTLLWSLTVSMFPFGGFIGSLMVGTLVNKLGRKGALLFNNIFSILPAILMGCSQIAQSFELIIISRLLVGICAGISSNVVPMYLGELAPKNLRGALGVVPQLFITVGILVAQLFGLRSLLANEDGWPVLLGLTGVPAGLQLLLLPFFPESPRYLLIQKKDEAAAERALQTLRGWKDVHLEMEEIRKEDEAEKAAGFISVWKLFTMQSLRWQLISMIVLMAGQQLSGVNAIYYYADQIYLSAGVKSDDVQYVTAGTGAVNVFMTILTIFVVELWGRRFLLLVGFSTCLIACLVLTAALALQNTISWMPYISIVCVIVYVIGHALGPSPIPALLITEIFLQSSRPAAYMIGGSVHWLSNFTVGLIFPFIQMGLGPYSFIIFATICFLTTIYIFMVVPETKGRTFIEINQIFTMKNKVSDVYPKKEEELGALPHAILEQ
To be noted: cited from earlier work.

The target in data set [2] is T1, GLUT5. Description: In vitro inhibition of 6-[18F]FDF cell uptake (competition) in EMT6 cells. The class given is cell-based, murine. To be noted: for IC50: 60 min incubation, glucose-free Krebs-Ringer buffer, mean ± SEM from n data points out of 2-4 experiments, read-out: IC50 (mM) against 6-[18F]FDF uptake into EMT6 cells; for Inhibition of 6-[18F]FDF uptake into EMT6 cells (in words): selected concentration range 10^-8-10^-3 and 3 x 10^-2 M; for Fold better inhibition of 6-[18F]FDF uptake relative to 6-FDF: compared with reference 6-FDF. Here is the method:
EMT6 cells were grown to confluence in 12-well cell culture plates with media renewal every 2 days. One hour prior to the experiment, cell culture media was removed and the plates were washed twice with glucose-free Krebs–Ringer buffer solution. To each well, 1 mL of glucose-free Krebs–Ringer buffer solution was added and incubation at 37 °C was continued for 1 h under the glucose-free condition. After one hour, Krebs–Ringer buffer was removed.
After 60 min incubation time, radiotracer uptake was stopped with 1 mL of ice-cold PBS, and the cells were washed twice with PBS and lysed in 0.4 mL radioimmunoprecipitation assay buffer (RIPA buffer). Radioactivity in the cell lysates was then determined as counts per minute (CPM) using a WIZARD2 automatic γ-counter (Perkin Elmer, Waltham, MA, USA) and converted to the radioactivity dose SI unit Becquerel (Bq). Data was analyzed as percentage of maximum uptake of 6-[^18F]FDF. Graphs were constructed using GraphPad Prism 5.0 (GraphPad Software, San Diego, CA, USA) and half-maximum inhibition concentrations (IC50) were determined by graphical analysis of the concentration-inhibition curves.
To analyze the interaction of these novel C-3-modified 2,5-anhydro-D-mannitol analogs with GLUT5, in vitro experiments were carried out in GLUT5-expressing murine mammary carcinoma cancer cells (EMT6) to determine how the varied substitution patterns would impact GLUT5 binding. Furthermore, fructose derivative 6-FDF was used as the reference compound as it was analyzed for its uptake profile through GLUT5 in the past. […] Therefore, when designing novel specific inhibitors for the GLUT5 transporter, it would be reasonable to expect their GLUT5 transport also in a millimolar concentration range, especially when using a radiometric assay that was established with radiolabeled fructose derivative 6-[^18F]FDF in murine EMT6 breast cancer cells and with inhibition by D-fructose and reference compound 6-FDF as internal controls.

The test system of data set [3] is GLUT5. To be noted: read-out: Affinity (Km) of fructose transport through GLUT5; D-[14C]fructose; GLUT5 (human isoform)-expressing oocytes or brush-border membrane vesicles from rat and human intestine; cited from earlier work.
Data set [4] can be described thus: Solubility in Krebs-Ringer buffer. The class given is physicochemical.
The next data set concerns GLUT2. Set-up: method as in PMID 29142019. The note with it: murine EMT6 cells; read-out: IC50 against uptake of [18F]FDG; cited from earlier work.
For data set [5], the system named is GLUT5. Set-up: method as in PMID 27074918. The note with it: MCF7 human breast cancer cells; read-out: IC50 against D-[14C]fructose; cited from earlier work.
Data set [6] deals with GLUT5. Also noted: method as in PMID 27074918. The note with it: proteoliposome GLUT5 expression system; read-out: IC50 against D-[14C]fructose; cited from earlier work.
The target in data set [7] is GLUT5. The note with it: human MCF7 breast cancer cells; cited from earlier work.
The test system of a further data set is GLUT1. Also noted: method as in PMID 18398011, PMID 9299540, PMID 15457374, doi:10.1002/bmb.2003.494031030227. To be noted: cited from earlier work.
Data set [8] deals with GLUT5. Set-up: method as in PMID 26306809. To be noted: read-out: IC50 against D-[14C]fructose; cited from earlier work.

Take `OC[C@H]1O[C@H](CF)[C@@H](O)[C@@H]1O` [1-FDAM, 1-deoxy-1-fluoro-2,5-anhydro-mannitol]: the IC50 at GLUT5 [1] (estimated earlier by the authors, read-out: IC50 against the uptake of the probe 6-[18F]FDF) is ~20 mM.

Consider `O=C(CO)[C@@H](O)[C@H](O)[C@H](O)CF` [6-FDF, 6-deoxy-6-fluoro-D-fructose], for which the IC50 was 19 mM on GLUT5 [1] (murine EMT6 breast cancer cells, read-out: IC50 (half-maximum inhibition concentration) against 6-[18F]FDF uptake) and 17 ± 0.75 mM on GLUT5 [2].

For the compound `O=S(=O)(N[C@H]1[C@H](O)[C@@H](CO)O[C@@H]1CO)c1ccc(F)cc1` [Compound 4, 3-deoxy-3-[N-(4-fluorobenzenesulfonamide)amino]-2,5-anhydro-D-mannitol], the IC50 on GLUT5 [2] was ~6 mM.

On to `O=S(=O)(N[C@H]1[C@H](O)[C@@H](CO)O[C@@H]1CO)c1ccc(F)cc1C(F)(F)F` [Compound 5, 3-deoxy-3-[N-(4-fluoro-2-(trifluoromethyl)benzenesulfonamide)amino]-2,5-anhydro-D-mannitol], for which, at GLUT5 [2], the “Inhibition of 6-[18F]FDF uptake into EMT6 cells (in words)” value (“Inhibition … (in words)” for short) is “failed to inhibit 6-[^18F] FDF uptake transport at all”.

Turning to `CN(C)c1cccc2c(S(=O)(=O)N[C@H]3[C@H](O)[C@@H](CO)O[C@@H]3CO)cccc12` [Compound 6, 3-deoxy-3-[N-(5-(dimethylamino)naphthalene-1-sulfonamide)amino]-2,5-anhydro-D-mannitol], on GLUT5 [2], the IC50 was 2.29 ± 0.18 mM and the “Fold better inhibition of 6-[18F]FDF uptake relative to 6-FDF” value is given as “fivefold stronger inhibitory effect”.

On to `OC[C@H]1O[C@H](CO)[C@@H](NC(=S)Nc2ccc(F)cc2)[C@@H]1O` [Compound 7, 3-deoxy-3-[N-(1-(4-fluorophenyl)thiourea)amino]-2,5-anhydro-D-mannitol], for which, at GLUT5 [2], the “Inhibition … (in words)” value is “no effect on 6-[^18F]FDF uptake”.

Consider `O=C(O)c1cc(NC(=S)N[C@H]2[C@H](O)[C@@H](CO)O[C@@H]2CO)ccc1-c1c2ccc(=O)cc-2oc2cc(O)ccc12` [Compound 8], for which the IC50 on GLUT5 [2] is ~20 mM.

`O=C(N[C@H]1[C@H](O)[C@@H](CO)O[C@@H]1CO)c1ccc(F)cc1` [Compound 9, 3-deoxy-3-[N-(4-fluorobenzamide)amino]-2,5-anhydro-D-mannitol]: on GLUT5 [2], the “Inhibition … (in words)” value is listed as “no inhibitory activity in the selected concentration range”.

For `O=C(CO/N=C/c1ccc(F)cc1)N[C@H]1[C@H](O)[C@@H](CO)O[C@@H]1CO` [Compound 10, 3-deoxy-3-[N-(2-(((4-fluorobenzylidene)amino)oxy)acetamide)amino]-2,5-anhydro-D-mannitol], the “Fold better inhibition of 6-[18F]FDF uptake relative to 6-FDF” value at GLUT5 [2] was ~ 10 fold.

For the compound `O=C(N[C@H]1[C@H](O)[C@@H](CO)O[C@@H]1CO)c1cc2ccc(OCCF)cc2oc1=O` [Compound 11, 3-deoxy-3-[N-(7-(2-fluoroethoxy)-2-oxo-2H-chromene-3-carboxamide)amino]-2,5-anhydro-D-mannitol], on GLUT5 [2], the IC50 is 1.71 ± 0.08 mM and the “Fold better inhibition of 6-[18F]FDF uptake relative to 6-FDF” value is ~ 10 fold.

For `O=C(CO)[C@@H](O)[C@H](O)[C@H](O)CO` [Fructose, D-fructose], the Km with GLUT5 [3] is 11 to 15 mM. Further, the Solubility entry in data set [4] is recorded as “freely soluble”. Moreover, in the data set on GLUT2, the IC50 was 80 mM.

On to `CS(=O)(=O)c1ccc(Nc2ccc3c(c2)OCO3)c([N+](=O)[O-])c1` [MSNBA, N-(4-methanesulfonyl-2-nitrophenyl)-2H-1,3-benzodioxol-5-amine], for which the IC50 in the data set with GLUT5 [5] is 5.8 mM; in the data set with GLUT5 [6], 0.1 mM.

`O=[N+]([O-])c1ccc(NC[C@H]2O[C@H](CO)[C@@H](O)[C@@H]2O)c2nonc12` [NBDM, 1-[N-(7-nitrobenz-2-oxa-1,3-diazole-4-yl)amino]-2,5-anhydro-D-mannitol]: at GLUT5 [7], the Ki is 2.3 to 2.7 mM and the “Transport efficiency through GLUT5 relative to D-fructose” value is “transported twice as efficiently as D-fructose”.

Regarding `OC[C@H]1OC(O)[C@H](O)[C@@H](O)[C@@H]1O` (stereo partly shown) [glucose], the “Affinity of glucose transport through GLUT1 (K4)” value with GLUT1 is 1 to 2 mM.

Consider `C=C1C[C@@]23CC[C@H]4[C@@](C)(CCC[C@@]4(C)C(=O)O[C@@H]4O[C@H](CO)[C@@H](O)[C@H](O)[C@H]4O)[C@@H]2CC[C@]1(O[C@@H]1O[C@H](CO)[C@@H](O)[C@H](O)[C@H]1O)C3` [rubusoside], for which the IC50 with GLUT5 [8] is 10.3 mM.

As usually defined, the Km is the concentration of substrate that gives half-maximal velocity. One may read the Ki as a measure of affinity in units of concentration, obtained from inhibition or displacement.
